According to US20090139433A1, “DENTAL MATERIALS BASED ON ALKYLENEDIAMINE-N,N,N',N'- TETRAACETIC ACID- (METH)ACRYLAMIDES” (Ivoclar Vivadent AG, priority 2007, published 2009):

Assay: Examination of the resistance to hydrolysis by 1H-NMR on storage
Type: physicochemical
Conditions: 20% solution in DMSO-d6/D2O (1:1); for hydrolysis products in the 1H-NMR spectrum at the start of the investigation: 37° C., at the start / immediately
Procedure: To examine the hydrolysis stabilities of the monomers MAM-EDTA and MA-EDTA, respectively, in each case a 20% solution in DMSO-d6/D2O (1:1) was stored at 37° C. At certain intervals, the ^1H-NMR spectra of these solutions were recorded. […] After 119 days' storage at 37° C., approx. 50% of the methacrylic ester groups had been hydrolyzed. In contrast, the monomer MAM-EDTA according to the invention was clearly more hydrolysis-resistant.

| Substance | hydrolysis products in the 1H-NMR spectrum at the start of the investigation | methacrylic ester groups hydrolyzed (after 119 days' storage at 37° C., 1H-NMR) | additional double-bond signals in the 1H-NMR spectrum (after 119 days at 37° C.) |
| --- | --- | --- | --- |
| EDTA-di(2-methacryloyloxyethyl)ester [MA-EDTA] | a second double-bond signal could be observed immediately | approx. 50% |  |
| EDTA-di(5-methacrylamidopentyl)ester [MAM-EDTA] | no hydrolysis products could be recognized |  | no additional double-bond signals could be detected |
